One test has as its target T1, human CCR6 (Homo sapiens, UniProt P51684).
T1 sequence (P51684 1-374): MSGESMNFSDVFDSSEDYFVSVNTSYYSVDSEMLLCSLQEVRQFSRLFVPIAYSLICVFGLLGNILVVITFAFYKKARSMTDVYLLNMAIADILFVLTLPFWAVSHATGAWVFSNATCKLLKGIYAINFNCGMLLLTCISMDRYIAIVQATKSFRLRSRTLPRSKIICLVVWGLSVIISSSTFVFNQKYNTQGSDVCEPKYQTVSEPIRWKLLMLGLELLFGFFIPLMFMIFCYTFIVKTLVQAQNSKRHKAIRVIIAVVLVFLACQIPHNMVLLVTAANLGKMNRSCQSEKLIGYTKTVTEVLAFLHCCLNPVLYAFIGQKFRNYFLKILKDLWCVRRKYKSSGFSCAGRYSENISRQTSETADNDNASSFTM
Put plainly: Human CCR6-CRE reporter assay. It counts as cell-based. On the set-up: The second construct contained the open reading frame of human CCR6 in the pUNO1 backbone; host or cells: 293FT cells (transient transfection with TransIT-293). As to conditions: 293FT cells transfected with human CCR6 and CRE-luciferase; Forskolin + CCL20, 5 h; relative Log IC50; read-out: CCR6-CRE reporter (converted). In outline: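 293FT cells transiently co-transfected with human CCR6 and a CRE-luc2P reporter, used 48 h later. Compounds in medium with 6 μM forskolin and 6 nM CCL20, 0.1% DMSO final, 5 h at 37° C. Luminescence read; relative log IC50 from a four-parameter fit.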
(In general: A reporter such as luciferase makes a cellular process visible.)

The next test relates to Human CD4+ T cells. Put plainly: CD4+ T cells chemotaxis assay towards CCL20. As to conditions: CD4+ T cell, 3 h. It counts as cell-based. From the text: Human CD4+ T cells were isolated from buffy coats of healthy donors using aCD4+ T Cell Isolation Kit(Miltenyi Biotec 130-096-533). Isolated T cells were stimulated overnight with anti-CD3 and anti-CD28 antibodies (Biolegend 300314/302934) in growth medium (RPMI1640, 10% heat-inactivated FBS, 1× pen/strep (Gibco 15140)). For the chemotaxis assay, Corning Transwell plates were used with a pore size of 5 m (Corning 3388). T cells were counted and diluted to 6*10^6 cells/ml in chemotaxis medium (RPMI1640, 1% BSA, pen/strep). Compounds were four-fold serially diluted in DMSO. Further dilutions were made in chemotaxis medium. Cells were incubated with test compounds for 30 min at 37° C. prior to initiation of the assay (3*10^6 cells/ml). Final DMSO concentration in the assay was 0.2%. Wells of the Transwell plates were filled with 200 μl chemotaxis medium containing 150 ng/ml CCL20 (R&D systems 360-MP). 50 μl of the cell/compound suspension was added to the inserts of the Transwell plates (150,000 cells/insert). The Transwell plates were placed in an incubator at 37° C., 5% CO2 for 3 h. After 3 h, the number of migrated cells was quantified using CellTiter Glo (Promega). Percentage inhibition values were calculated based on the low and high signal obtained with 0.2% DMSO in chemotaxis medium without and with CCL20, respectively. The relative Log IC50 was determined with GraphPad Prism 9 using a four-parameter dose-response model.

As to `CC(C)c1nnc2ccc(-c3ccc(S(=O)(=O)N4CCC(Nc5ccc(SC(F)(F)F)cn5)CC4)cc3)cn12` [Example 65, N-(1-{4-[3-(propan-2-yl)-[1,2,4]triazolo[4,3-a]pyridin-6-yl]benzenesulfonyl}piperidin-4-yl)-5-[(trifluoromethyl)sulfanyl]pyridin-2-amine], the figures for the IC50 on human CCR6 and with Human CD4+ T cells were 25.1 nM and 5.01 nM, respectively.

In the case of `N#Cc1c[nH]c2ccc(-c3ccc(S(=O)(=O)N4CCC(Nc5ccc(OC(F)(F)F)cc5)CC4)cc3)cc12` [Example 13, 5-{4-[(4-{[4-(trifluoromethoxy)phenyl]Amino}piperidin-1-yl)sulfonyl]phenyl}-1H-indole-3-carbonitrile], the results for the IC50 at human CCR6 and with Human CD4+ T cells were 79.4 nM and 10 nM, respectively.

For the origin of these results see US20250353859A1, “COMPOUNDS AS CCR6 INHIBITORS” (Hoffmann-La Roche Inc., priority 2023, published 2025).
